Our source for the IC50 values is patent publication US20260132140A1, “IMIDAZOLYL-AMINO-PYRAZINE-CARBONITRILS AS CHK-1 INHIBITORS” (BenevolentAI Bio Limited, priority 2022, published 2026).

Usually IC50 stands for the concentration that gives 50% inhibition. Read a low IC50 as greater potency in that assay.

Assay [1] deals with human Chk2 kinase (Homo sapiens, UniProt O96017). The assay is described as follows: biochemical.
The target in assay [2] is T1, human Chk1 kinase (Homo sapiens, UniProt O14757).
T1 sequence (O14757 1-476): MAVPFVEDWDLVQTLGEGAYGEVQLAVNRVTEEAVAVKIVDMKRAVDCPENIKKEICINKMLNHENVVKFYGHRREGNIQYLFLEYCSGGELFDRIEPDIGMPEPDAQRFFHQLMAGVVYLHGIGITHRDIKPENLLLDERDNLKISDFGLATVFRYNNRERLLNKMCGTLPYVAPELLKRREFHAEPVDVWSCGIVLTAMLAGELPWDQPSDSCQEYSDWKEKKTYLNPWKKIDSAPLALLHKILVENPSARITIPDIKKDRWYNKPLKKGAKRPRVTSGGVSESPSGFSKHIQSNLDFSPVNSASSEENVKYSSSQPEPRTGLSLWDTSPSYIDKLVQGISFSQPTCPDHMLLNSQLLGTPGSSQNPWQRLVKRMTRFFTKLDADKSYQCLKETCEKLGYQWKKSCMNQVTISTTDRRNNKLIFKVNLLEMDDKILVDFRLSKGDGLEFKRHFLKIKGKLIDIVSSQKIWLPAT
The assay is described as follows: biochemical.

Where only a bound is given, the exact number is not on record here.

human Chk2 kinase, sequence (O96017 whole entry): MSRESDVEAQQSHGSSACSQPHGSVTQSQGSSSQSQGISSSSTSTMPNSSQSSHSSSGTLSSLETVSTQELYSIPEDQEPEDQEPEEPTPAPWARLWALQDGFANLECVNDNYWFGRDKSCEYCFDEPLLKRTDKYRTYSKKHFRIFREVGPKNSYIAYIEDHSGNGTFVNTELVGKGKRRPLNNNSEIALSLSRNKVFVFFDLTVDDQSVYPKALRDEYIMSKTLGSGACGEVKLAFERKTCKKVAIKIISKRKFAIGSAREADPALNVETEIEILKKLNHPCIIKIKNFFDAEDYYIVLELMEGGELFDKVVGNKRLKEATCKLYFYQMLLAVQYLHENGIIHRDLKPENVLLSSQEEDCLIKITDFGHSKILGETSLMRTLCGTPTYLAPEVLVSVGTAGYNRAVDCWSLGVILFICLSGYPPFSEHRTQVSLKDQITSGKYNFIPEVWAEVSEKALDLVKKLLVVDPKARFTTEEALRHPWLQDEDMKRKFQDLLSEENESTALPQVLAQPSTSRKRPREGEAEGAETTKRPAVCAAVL

On to `CN(C)[C@@H]1CCN(c2cnc(-n3cnc(Nc4cnc(C#N)cn4)c3)nc2)C1` [Example 82, (R)-5-((1-(5-(3-(Dimethylamino)pyrrolidin-1-yl)pyrimidin-2-yl)-1H-imidazol-4-yl)amino)pyrazine-2-carbonitrile], for which the IC50 in assay [1] was in the range of 1 to 10 µM; in assay [2], 0.0316 to 0.1 µM.
In the case of `CN1CC[C@@H]2CN(c3ccc(-n4cnc(Nc5cnc(C#N)cn5)c4)cc3)C[C@@H]21` [Example 87, 5-((1-(4-((3aR,6aR)-1-Methylhexahydropyrrolo[3,4-b]pyrrol-5(1H)-yl)phenyl)-1H-imidazol-4-yl)amino)pyrazine-2-carbonitrile], the half-maximal inhibitory concentration (IC50) in assay [1] lay in the range of 10 to 100 µM; in assay [2] it was 0.01 to 0.0316 µM.
As for `CCN[C@H]1CN(c2ccc(-n3cnc(Nc4cnc(C#N)cn4)c3)cc2)C[C@H]1F` [Example 88, 5-((1-(4-((3S,4R)-3-(Ethylamino)-4-fluoropyrrolidin-1-yl)phenyl)-1H-imidazol-4-yl)amino)pyrazine-2-carbonitrile], the IC50 was 1 to 10 µM in assay [1] and 0.01 to 0.0316 µM in assay [2].
As for `CN1CC[C@@H]2[C@H]1CCN2c1ccc(-n2cnc(Nc3cnc(C#N)cn3)c2)cc1` [Example 91, 5-((1-(4-((3aR,6aR)-4-Methylhexahydropyrrolo[3,2-b]pyrrol-1(2H)-yl)phenyl)-1H-imidazol-4-yl)amino)pyrazine-2-carbonitrile], the 50% inhibitory concentration (IC50) in assay [1] fell in the range of 10 to 100 µM; in assay [2], 0.01 to 0.0316 µM.
`N#Cc1cnc(Nc2cn(-c3ccc(N4CC[C@@H](NCCC(F)(F)F)C4)cn3)cn2)cn1` [Example 93, (R)-5-((1-(5-(3-((3,3,3-Trifluoropropyl)amino)pyrrolidin-1-yl)pyridin-2-yl)-1H-imidazol-4-yl)amino)pyrazine-2-carbonitrile]: the results for the IC50 in assay [1] and in assay [2] were above 100 µM and 0.01 to 0.0316 µM, respectively.
For `CN1CC[C@@H](N(C)c2ccc(-n3cnc(Nc4cnc(C#N)cn4)c3)cc2)C1` [Example 94, (R)-5-((1-(4-(Methyl(1-methylpyrrolidin-3-yl)amino)phenyl)-1H-imidazol-4-yl)amino)pyrazine-2-carbonitrile], the IC50 in assay [1] was in the range of 10 to 100 µM; in assay [2], 0.0316 to 0.1 µM.
The like results for `CN1CC[C@H](N(C)c2ccc(-n3cnc(Nc4cnc(C#N)cn4)c3)cc2)C1` [Example 95, (S)-5-((1-(4-(Methyl(1-methylpyrrolidin-3-yl)amino)phenyl)-1H-imidazol-4-yl)amino)pyrazine-2-carbonitrile] were, in that order, 10 to 100 µM and 0.0316 to 0.1 µM.
The like results for `CN1CCN(c2ccc(-n3cnc(Nc4cnc(C#N)cn4)c3)cc2)CC1(C)C` [Example 97, 5-((1-(4-(3,3,4-Trimethylpiperazin-1-yl)phenyl)-1H-imidazol-4-yl)amino)pyrazine-2-carbonitrile] were, in that order, 10 to 100 µM and 0.0316 to 0.1 µM.
Taken in the same sequence, the figures for `CN1CC2(CCN2c2ccc(-n3cnc(Nc4cnc(C#N)cn4)c3)cc2)C1` [Example 99, 5-((1-(4-(6-Methyl-1,6-diazaspiro[3.3]heptan-1-yl)phenyl)-1H-imidazol-4-yl)amino)pyrazine-2-carbonitrile] were 10 to 100 µM and 0.01 to 0.0316 µM.
As for `CN1CCC12CCN(c1ccc(-n3cnc(Nc4cnc(C#N)cn4)c3)cc1)CC2` [Example 100, 5-((1-(4-(1-Methyl-1,7-diazaspiro[3.5]nonan-7-yl)phenyl)-1H-imidazol-4-yl)amino)pyrazine-2-carbonitrile], the IC50 in assay [1] lay in the range of 10 to 100 µM; in assay [2] it was 0.01 to 0.0316 µM.
Taken in the same sequence, the figures for `CN1C[C@@H]2CN(c3ccc(-n4cnc(Nc5cnc(C#N)cn5)c4)cc3)C[C@@H]2C1` [Example 101, 5-((1-(4-((3aR,6aS)-5-Methylhexahydropyrrolo[3,4-c]pyrrol-2(1H)-yl)phenyl)-1H-imidazol-4-yl)amino)pyrazine-2-carbonitrile] were 10 to 100 µM and below 0.01 µM.
Take `N#Cc1cnc(Nc2cn(-c3ccc(N4CC[C@@H](N5CCC5)C4)cn3)cn2)cn1` [Example 102, (R)-5-((1-(5-(3-(Azetidin-1-yl)pyrrolidin-1-yl)pyridin-2-yl)-1H-imidazol-4-yl)amino)pyrazine-2-carbonitrile]: the IC50 lay within 1 to 10 µM in assay [1] and 0.01 to 0.0316 µM in assay [2].
Taken in the same sequence, the figures for `COc1cc(N2CC[C@@H](N3CCC3)C2)ccc1-n1cnc(Nc2cnc(C#N)cn2)c1` [Example 103, (R)-5-((1-(4-(3-(Azetidin-1-yl)pyrrolidin-1-yl)-2-methoxyphenyl)-1H-imidazol-4-yl)amino)pyrazine-2-carbonitrile] were 1 to 10 µM and below 0.01 µM.
The like results for `Cc1cc(-n2cnc(Nc3cnc(C#N)cn3)c2)ccc1N1CC[C@@H](N2CCC2)C1` [Example 104, (R)-5-((1-(4-(3-(Azetidin-1-yl)pyrrolidin-1-yl)-3-methylphenyl)-1H-imidazol-4-yl)amino)pyrazine-2-carbonitrile] were, in that order, 10 to 100 µM and 0.01 to 0.0316 µM.
The like results for `N#Cc1cnc(Nc2cn(-c3ccc(CN4CCOCC4)cc3)cn2)cn1` [Example 142, 5-((1-(4-(Morpholinomethyl)phenyl)-1H-imidazol-4-yl)amino)pyrazine-2-carbonitrile] were, in that order, 10 to 100 µM and 0.1 to 0.316 µM.
For the molecule `CN1C[C@@H](F)[C@@H](OCc2ccc(-n3cnc(Nc4cnc(C#N)cn4)c3)cc2)C1` [Example 146, 5-((1-(4-((((3S,4R)-4-fluoro-1-Methylpyrrolidin-3-yl)oxy)methyl)phenyl)-1H-imidazol-4-yl)amino)pyrazine-2-carbonitrile], the figures for the IC50 in assay [1] and in assay [2] were 10 to 100 µM and 0.0316 to 0.1 µM, respectively.
Taken in the same sequence, the figures for `N#Cc1cnc(Nc2cn(-c3cccc(N4C[C@@H](N)[C@@H](F)C4)c3)cn2)cn1` [Example 151, 5-((1-(3-((3R,4S)-3-Amino-4-fluoropyrrolidin-1-yl)phenyl)-1H-imidazol-4-yl)amino)pyrazine-2-carbonitrile] were 10 to 100 µM and 0.0316 to 0.1 µM.
Taken in the same sequence, the figures for `N#Cc1cnc(Nc2cn(-c3ccc(N4CC(F)(CN)C4)cc3)cn2)cn1` [Example 159, 5-((1-(4-(3-(Aminomethyl)-3-fluoroazetidin-1-yl)phenyl)-1H-imidazol-4-yl)amino)pyrazine-2-carbonitrile] were 1 to 10 µM and 0.01 to 0.0316 µM.
`N#Cc1cnc(Nc2cn(-c3ccc(N4CC5(CCN5)C4)cc3)cn2)cn1` [Example 160, 5-((1-(4-(1,6-Diazaspiro[3.3]heptan-6-yl)phenyl)-1H-imidazol-4-yl)amino)pyrazine-2-carbonitrile]: the results for the IC50 in assay [1] and in assay [2] were 1 to 10 µM and 0.01 to 0.0316 µM, respectively.
For the molecule `N#Cc1cnc(Nc2cn(-c3ccc(N4C[C@H]5CN[C@H]5C4)cc3)cn2)cn1` [Example 161, 5-((1-(4-((1R,5R)-3,6-Diazabicyclo[3.2.0]heptan-3-yl)phenyl)-1H-imidazol-4-yl)amino)pyrazine-2-carbonitrile], the IC50 lay in the range of 1 to 10 µM in assay [1] and 0.01 to 0.0316 µM in assay [2].
`CCN[C@@H]1CCN(c2ccc(-n3cnc(Nc4cnc(C#N)cn4)c3)cc2)C1` [Example 162, (R)-5-((1-(4-(3-(Ethylamino)pyrrolidin-1-yl)phenyl)-1H-imidazol-4-yl)amino)pyrazine-2-carbonitrile]: the IC50 was 1 to 10 µM in assay [1] and below 0.01 µM in assay [2].
For the molecule `CN[C@H]1CN(c2ccc(-n3cnc(Nc4cnc(C#N)cn4)c3)c(OC)c2)C[C@H]1F` [Example 164, 5-((1-(4-((3R,4S)-3-Fluoro-4-(methylamino)pyrrolidin-1-yl)-2-methoxyphenyl)-1H-imidazol-4-yl)amino)pyrazine-2-carbonitrile], the IC50 was 1 to 10 µM in assay [1] and below 0.01 µM in assay [2].
In the case of `COc1cc(CN2CC[C@@H](F)C2)ccc1-n1cnc(Nc2cnc(C#N)cn2)c1` [Example 169], the results for the IC50 in assay [1] and in assay [2] were 10 to 100 µM and 0.01 to 0.0316 µM, respectively.
The like results for `CCNCc1ccc(-n2cnc(Nc3cnc(C#N)cn3)c2)c(OC)c1` [Example 170, 5-((1-(4-((Ethylamino)methyl)-2-methoxyphenyl)-1H-imidazol-4-yl)amino)pyrazine-2-carbonitrile] were, in that order, 10 to 100 µM and 0.01 to 0.0316 µM.
For `COc1cc(CN2CCCC2)ccc1-n1cnc(Nc2cnc(C#N)cn2)c1` [Example 171, 5-((1-(2-Methoxy-4-(pyrrolidin-1-ylmethyl)phenyl)-1H-imidazol-4-yl)amino)pyrazine-2-carbonitrile], the IC50 was 10 to 100 µM in assay [1] and 0.01 to 0.0316 µM in assay [2].
On to `COc1cc(CN2CCC(F)(F)CC2)ccc1-n1cnc(Nc2cnc(C#N)cn2)c1` [Example 172, 5-((1-(4-((4,4-Difluoropiperidin-1-yl)methyl)-2-methoxyphenyl)-1H-imidazol-4-yl)amino)pyrazine-2-carbonitrile], for which the figures for the IC50 in assay [1] and in assay [2] were 10 to 100 µM and 0.0316 to 0.1 µM, respectively.
The like results for `COc1cc(CN2CCOCC2)ccc1-n1cnc(Nc2cnc(C#N)cn2)c1` [Example 173, 5-((1-(2-Methoxy-4-(morpholinomethyl)phenyl)-1H-imidazol-4-yl)amino)pyrazine-2-carbonitrile] were, in that order, 10 to 100 µM and 0.0316 to 0.1 µM.
Taken in the same sequence, the figures for `N#Cc1cnc(Nc2cn(-c3ccc(CN4CCC(F)CC4)cc3)cn2)cn1` [Example 174, 5-((1-(4-((4-Fluoropiperidin-1-yl)methyl)phenyl)-1H-imidazol-4-yl)amino)pyrazine-2-carbonitrile] were 10 to 100 µM and 0.0316 to 0.1 µM.
